Measured values as given in the METLIN SMRT retention time set (Domingo-Almenara et al. 2019).

Assay: gradient 5% acetonitrile 3 min, to 50% in 2 min, to 85% in 15 min, held 3 min, 100 µL/min
Details: column: Zorbax Extend-C18 2.1 x 50 mm; eluents: water / acetonitrile, 0.1% formic acid
Method in brief: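 The mobile phases were water and acetonitrile, each with 0.1% formic acid, pumped at 100 μL/min through a Zorbax Extend-C18 column (2.1 × 50 mm, 1.8 μm). Pure standards were injected as mixtures of ~100 molecules and detected by a quadrupole time-of-flight mass spectrometer in positive and negative ionization mode. Retention time came from computationally picked adduct peaks, each inspected by hand.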

| Compound | RP-LC retention time |
| --- | --- |
| CN1C(=O)c2cc(C(=O)Nc3ccc(F)cc3F)nn2CC1(C)C(=O)NC1CCCCC1 (centres undefined) | 732 s |
| CCN1CCn2cc(S(=O)(=O)NCc3ccccc3F)cc2C1=O | 685 s |
| CC(NC(=O)C1CCCN(c2cnc3nccnc3c2)C1)c1cccnc1 (centres undefined) | 598 s |
| COc1ccc(NS(=O)(=O)c2ccc(/C=C\c3onc(C)c3NC(C)=O)cc2)c(OC)c1 | 777 s |
| CC(C)CN1CCn2cc(S(=O)(=O)NCc3cccc(F)c3)cc2C1=O | 813 s |
| CSc1ccc(NC(=O)C2CCN(c3cncnc3N3CCOCC3)CC2)cc1 | 669 s |
| CCn1nc(C)c(CCN(C)C(=O)Cn2nc3n(c2=O)CCC(N)CC3)c1C (centres undefined) | 515 s |
| CCCCn1nc2ccc(S(=O)(=O)N3CCCCCC3)cn2c1=O | 957 s |
| C=CCc1ccccc1OCC(O)CN1CCC(C)CC1 (centres undefined) | 588 s |
| O=c1[nH]cc(S(=O)(=O)NC2CC3CCC2C3)c(=O)[nH]1 (centres undefined) | 637 s |
| CC(=O)N1CCN(Cc2nc(-c3ccc(N4CCCC(C)C4)nc3)no2)CC1 (centres undefined) | 669 s |
| O=C(NCC1CCCO1)C1CCN(C(=O)c2ncn3c2COC(c2ccccc2)C3)CC1 (centres undefined) | 649 s |
| CC(C)N1C(=O)C(C)N(C(=O)NC2CCCC2)c2cccnc21 (centres undefined) | 924 s |
| CC1CCN(c2nccnc2Oc2ccc(C(=O)N3CCN(c4ccccn4)CC3)cc2)CC1 | 711 s |
| COc1ccc(Cn2nc3ccc(S(=O)(=O)N4CCOCC4)cn3c2=O)cc1 | 792 s |
| O=C(NCCc1c[nH]c2ccc(Cl)cc12)c1sc2ncccc2c1-n1cccc1 | 1060 s |
| CCSc1nnc(NC(=O)CCc2csc(NC(=O)c3cccs3)n2)s1 | 788 s |
| Cc1ccc(C2=NC3(CCN(C(=O)Cc4cccs4)CC3)ON2)cc1 | 829 s |
| CCC(C)NC(=O)CCc1cc2cc(OC)ccc2[nH]c1=O (centres undefined) | 668 s |
| COc1ccc(C)cc1NC(=O)Cn1nc(N2CCCC2)c2ccccc2c1=O | 840 s |
| Cc1ccc(NC(=O)Cn2nc3c(Oc4cccc(F)c4)nccn3c2=O)cc1 | 880 s |
| O=C(Cc1ccc(F)cc1)NCC1CC(=O)N(Cc2ccc(F)cc2)C1 (centres undefined) | 871 s |

| Compound | RP-LC retention time |
| --- | --- |
| O=S(=O)(c1ccc2c(c1)-c1oncc1CO2)N1CCN(C2CCCCC2)CC1 | 640 s |
| COc1ccc(NC(=O)NCCc2nc3cccnc3n2C2CCCC2)cc1OC | 647 s |
| Cc1cc(C)cc(-c2nnc(Cc3nc(-c4cccc(Br)c4)no3)o2)c1 | 1240 s |
| Cc1cc(C)cc(-n2ccnc(NC(=O)Nc3ccc(F)c(Cl)c3)c2=O)c1 | 1150 s |
| Cc1cccc(NC(=O)N(C)CCc2noc(COc3ccccc3)n2)c1 | 927 s |
| CCCc1ccc(S(=O)(=O)N2CCc3c(c(-c4nnc(SCC)n4CC)nn3C)C2)cc1 | 1090 s |
| Cn1c(=O)sc2cc(S(=O)(=O)N3CCC(C(=O)Nc4ccc(F)c(Cl)c4)CC3)ccc21 | 938 s |
| Cn1nc(C(=O)N2CCCC(C(=O)Nc3ccccc3)C2)c2c1CCN(C(=O)C1CCCCC1)C2 (centres undefined) | 796 s |
| O=C(Nc1cc(-c2cccs2)no1)C1(c2ccccc2)CC1 | 1050 s |
| CCOC(=O)N1CCN(S(=O)(=O)c2ccc(C(=O)Nc3cc(C)nn3C)cc2)CC1 | 687 s |
| COc1ccc(NC(=O)Cn2nc3c(Oc4cc(C)cc(C)c4)nccn3c2=O)cc1 | 859 s |
| O=C(NCc1cccc(F)c1)C1c2ccccc2CCN1C(=O)C1CC1 (centres undefined) | 840 s |
| CCn1nccc1C(=O)NC1CCCCC1 | 718 s |
| Cc1noc(-c2cccnc2N2CCN(C(c3ccccc3)c3ccccc3)CC2)n1 | 742 s |
| CSc1ccccc1NS(=O)(=O)c1cc2c(s1)CCN(C(=O)C1CC1)C2 | 851 s |
| COc1ccccc1NC(=O)C1CCN(S(=O)(=O)c2cc(C(=O)N3CCOCC3)cs2)CC1 | 779 s |
| O=C(Cc1cccc(C(F)(F)F)c1)Nc1cccn2c(C3CCC3)nnc12 | 905 s |
| CCOC(=O)c1[nH]c(C)c(C(=O)C(C)N(CCOC)C(=O)c2ccccc2Cl)c1C (centres undefined) | 820 s |
| Cc1ccc(N2C(=O)CSC2c2ccccc2)cc1 (centres undefined) | 843 s |
| CC(C)CC(=O)N1CCC2(CC1)c1nccn1-c1ccccc1CN2C | 580 s |
| CC(C)CC(=O)Nc1ccc(-c2nc(-c3ccccc3)co2)cc1 | 1100 s |
| CCN1C(=O)c2ccccc2Oc2ccc(C(=O)NC3CCCCC3)cc21 | 967 s |
